These are literature values, as cited in patent US8410056B2, “Pro-oxidant anti-cancer compounds” (priority 2006, dated 2013).

Data set [1] relates to Jurkat, HVT11, MCF7, MCF7-C3, U937, Meso-2. The conditions noted are these: cited from earlier work.
The next data set concerns LNCaP, PC-3. Conditions: Shiau et al, 2006; cited from earlier work.
The test system of the next data set is MDA-MB-435. The conditions noted are these: cited from earlier work.
The test system of another data set is MCF7. Conditions: cited from earlier work.
The next data set deals with B16(F10). The conditions noted are these: B16(F10); He et al, 1997; cited from earlier work.
Data set [2] deals with neoplastic + SA mammary epithelial cells. The conditions noted are these: cited from earlier work.

In the case of `Cc1cc(OC(=O)CCC(=O)O)c(C)c2c1OC(C)(CCCC(C)CCCC(C)CCCC(C)C)CC2` (stereo not shown) [Compound 32], the “IC50, relative to α-TOS” value in data set [1] is 50% of α-TOS.

Broadly, the IC50 is the concentration that gives 50% inhibition. As to `Cc1c(C)c2c(c(C)c1OC(=O)CCC(=O)O)CCC(C)(C)O2` [Compound 46], in the data set on LNCaP, PC-3, the IC50 is more than 100 µM. As to `CC(C)=CCC/C(C)=C/CC/C(C)=C/CC[C@]1(C)CCc2c(C)c(O)c(C)c(C)c2O1` [Compound 53, α-tocotrienol], the figures for the IC50 in the data set with MDA-MB-435, in the data set with MCF7 and with B16(F10) were 210 µM, 14 µM and 110 µM, respectively. For the compound `CC(C)=CCC/C(C)=C/CC/C(C)=C/CC[C@]1(C)CCc2cc(O)c(C)c(C)c2O1` [Compound 56, γ-tocotrienol], the IC50 in data set [2] was 4 µM; with B16(F10), 20 µM.
